# Data published in US10246453B2, “Benzenesulfonamide compounds and their use as therapeutic agents” (Xenon Pharmaceuticals Inc., priority 2016, dated 2019).
# Counter-ions that a name gives are not always drawn.
# Assays:
# NaV1.6 = NaV1.6 (Homo sapiens (Human), UniProt Q9UQD0); assay: Sodium Influx Assay (Flux), NaV1.6; conditions: read-out: Flux NaV1.6 IC50; Trex HEK293 cells, ANG2 dye; arithmetic mean
# NaV1.5 = NaV1.5 (Homo sapiens (Human), UniProt Q14524); assay: Sodium Influx Assay (Flux), NaV1.5; conditions: read-out: Flux NaV1.5 IC50; Trex HEK293 cells, ANG2 dye; arithmetic mean
# NaV1.5, sequence (Q14524 other isoform, or with tags, fused parts or gaps): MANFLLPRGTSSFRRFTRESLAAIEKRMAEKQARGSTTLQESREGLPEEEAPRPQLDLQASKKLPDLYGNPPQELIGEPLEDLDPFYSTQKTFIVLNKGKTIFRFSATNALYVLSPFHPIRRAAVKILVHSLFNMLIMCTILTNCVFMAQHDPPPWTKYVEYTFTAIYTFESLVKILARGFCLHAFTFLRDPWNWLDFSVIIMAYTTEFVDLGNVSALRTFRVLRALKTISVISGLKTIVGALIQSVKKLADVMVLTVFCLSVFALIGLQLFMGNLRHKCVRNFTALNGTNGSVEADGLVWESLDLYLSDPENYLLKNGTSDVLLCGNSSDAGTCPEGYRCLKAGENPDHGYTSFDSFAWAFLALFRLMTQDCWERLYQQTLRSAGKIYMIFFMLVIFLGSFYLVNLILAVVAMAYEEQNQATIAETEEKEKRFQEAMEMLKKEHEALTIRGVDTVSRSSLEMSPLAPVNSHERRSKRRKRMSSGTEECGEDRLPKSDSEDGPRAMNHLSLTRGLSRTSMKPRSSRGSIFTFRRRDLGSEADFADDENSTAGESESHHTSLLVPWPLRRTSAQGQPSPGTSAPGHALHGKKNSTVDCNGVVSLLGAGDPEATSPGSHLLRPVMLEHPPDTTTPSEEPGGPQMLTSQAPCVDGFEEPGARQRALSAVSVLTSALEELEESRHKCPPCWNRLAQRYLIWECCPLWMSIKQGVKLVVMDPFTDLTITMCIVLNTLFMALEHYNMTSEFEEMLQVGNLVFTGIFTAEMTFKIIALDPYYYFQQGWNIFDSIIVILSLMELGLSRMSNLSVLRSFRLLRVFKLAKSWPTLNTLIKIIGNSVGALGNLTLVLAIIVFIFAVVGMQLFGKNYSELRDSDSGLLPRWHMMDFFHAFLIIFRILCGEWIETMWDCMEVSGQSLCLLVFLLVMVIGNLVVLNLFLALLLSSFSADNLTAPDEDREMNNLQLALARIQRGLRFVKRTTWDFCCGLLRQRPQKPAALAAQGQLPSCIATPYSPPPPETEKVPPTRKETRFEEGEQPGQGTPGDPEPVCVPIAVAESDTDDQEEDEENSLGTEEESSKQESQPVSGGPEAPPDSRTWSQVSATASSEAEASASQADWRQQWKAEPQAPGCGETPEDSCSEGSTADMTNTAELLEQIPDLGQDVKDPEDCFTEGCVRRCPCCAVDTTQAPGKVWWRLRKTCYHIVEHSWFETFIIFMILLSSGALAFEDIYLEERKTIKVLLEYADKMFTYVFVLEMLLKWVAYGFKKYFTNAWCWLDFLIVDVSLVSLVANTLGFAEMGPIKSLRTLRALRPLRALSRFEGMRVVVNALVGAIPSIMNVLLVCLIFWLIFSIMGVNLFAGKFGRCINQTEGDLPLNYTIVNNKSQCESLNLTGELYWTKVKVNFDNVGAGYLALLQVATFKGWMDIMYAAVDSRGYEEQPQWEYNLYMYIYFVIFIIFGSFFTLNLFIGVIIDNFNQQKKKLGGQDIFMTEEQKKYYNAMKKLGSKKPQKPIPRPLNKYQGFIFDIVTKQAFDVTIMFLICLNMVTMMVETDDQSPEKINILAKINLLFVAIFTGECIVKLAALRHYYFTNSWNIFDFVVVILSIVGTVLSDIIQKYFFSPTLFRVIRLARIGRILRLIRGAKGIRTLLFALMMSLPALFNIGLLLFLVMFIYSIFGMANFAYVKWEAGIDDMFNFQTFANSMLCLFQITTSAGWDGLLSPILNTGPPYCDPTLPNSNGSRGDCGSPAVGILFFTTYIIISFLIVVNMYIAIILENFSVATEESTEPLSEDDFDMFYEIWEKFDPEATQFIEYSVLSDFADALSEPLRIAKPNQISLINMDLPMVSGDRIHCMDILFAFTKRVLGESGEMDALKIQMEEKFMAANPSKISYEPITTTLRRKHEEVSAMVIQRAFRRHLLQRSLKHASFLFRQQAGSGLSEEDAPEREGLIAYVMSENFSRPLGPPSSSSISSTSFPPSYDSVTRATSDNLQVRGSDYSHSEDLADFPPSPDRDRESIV
# NaV1.1 = NaV1.1 (Homo sapiens (Human), UniProt P35498); assay: Sodium Influx Assay (Flux), NaV1.1; type: cell-based; conditions: Trex HEK293 cells, ANG2 dye; arithmetic mean
Structure (SMILES),IC50 (NaV1.6) [µM],IC50 (NaV1.1) [µM],IC50 (NaV1.5) [µM]
"O=S(=O)(Nc1nccs1)c1ccc(OC2CN(Cc3ccccc3)C2)c(Cl)c1 [Example 76, 4-((1-benzylazetidin-3-yl)oxy)-3-chloro-N-(thiazol-2-yl)benzenesulfonamide]",4.7,11.4,16.8
"O=S(=O)(Nc1cccc(F)n1)c1cc(Cl)c(OC2CCN(Cc3ccccc3)CC2)cc1F [Example 78, 4-((1-benzylpiperidin-4-yl)oxy)-5-chloro-2-fluoro-N-(6-fluoropyridin-2-yl)benzenesulfonamide 2,2,2-trifluoroacetate]",6.6,8.17,2.86
"Cc1ccc(CN2CCC(Oc3ccc(S(=O)(=O)Nc4nccs4)cc3Cl)CC2)cc1C [Example 93, 3-chloro-4-(1-(3,4-dimethylbenzyl)piperidin-4-yloxy)-N-(thiazol-2-yl)benzenesulfonamide]",3.62,12.6,12.5
"Cc1cc(C)cc(CN2CCC(Oc3ccc(S(=O)(=O)Nc4nccs4)cc3Cl)CC2)c1 [Example 94, 3-chloro-4-(1-(3,5-dimethylbenzyl)piperidin-4-yloxy)-N-(thiazol-2-yl)benzenesulfonamide]",3.44,11.4,7.62
"O=S(=O)(Nc1ncns1)c1ccc(O[C@@H]2CCN(Cc3ccccc3)C2)c(Cl)c1 [Example 96, (R)-4-(1-benzylpyrrolidin-3-yloxy)-3-chloro-N-(1,2,4-thiadiazol-5-yl)benzenesulfonamide 2,2,2-trifluoroacetate]",11.9,25.7,> 30
"Cc1cc(C)cc(CN2CC[C@@H](Oc3ccc(S(=O)(=O)Nc4ncns4)cc3Cl)C2)c1 [Example 98, (R)-3-chloro-4-(1-(3,5-dimethylbenzyl)pyrrolidin-3-yloxy)-N-(1,2,4-thiadiazol-5-yl)benzenesulfonamide 2,2,2-trifluoroacetate]",7.53,21.9,> 30
"Cc1cc(S(=O)(=O)Nc2cscn2)c(F)cc1N(C)[C@H]1CCN(Cc2ccnn2CC(F)(F)F)C1 [Example 108, (S)-2-fluoro-5-methyl-4-(methyl(1-((1-(2,2,2-trifluoroethyl)-1H-pyrazol-5-yl)methyl)pyrrolidin-3-yl)amino)-N-(thiazol-4-yl)benzenesulfonamide]",5.49,12.5,> 30
"Cc1cc(S(=O)(=O)Nc2cscn2)c(F)cc1N(C)[C@H]1CCN([C@H]2C[C@@H](c3ccccc3)C2)C1 [Example 109, 2-fluoro-5-methyl-4-(methyl((S)-1-((1s,3R)-3-phenylcyclobutyl)-pyrrolidin-3-yl)amino)-N-(thiazol-4-yl)benzenesulfonamide formate]",1.11,1.99,2.8
"Cc1nc(CN2CC[C@H](N(C)c3cc(F)c(S(=O)(=O)Nc4cscn4)cc3C)C2)cs1 [Example 110, (S)-2-fluoro-5-methyl-4-(methyl(1-((2-methylthiazol-4-yl)methyl)pyrrolidin-3-yl)amino)-N-(thiazol-4-yl)benzenesulfonamide formate]",0.262,> 30,> 30
"Cc1cc(S(=O)(=O)Nc2cscn2)c(F)cc1N(C)[C@H]1CCN(Cc2ccccc2C(F)F)C1 [Example 112, (S)-4-((1-(2-(difluoromethyl)benzyl)-pyrrolidin-3-yl)(methyl)amino)-2-fluoro-5-methyl-N-(thiazol-4-yl)benzenesulfonamide]",0.773,4.6,8.19
"Cc1cc(S(=O)(=O)Nc2cscn2)c(F)cc1N(C)[C@H]1CCN([C@H]2C[C@H](c3ccccc3)C2)C1 [Example 117, 2-fluoro-5-methyl-4-(methyl((S)-1-((1r,3S)-3-phenylcyclobutyl)-pyrrolidin-3-yl)amino)-N-(thiazol-4-yl)benzenesulfonamide formate]",1.45,2.26,3.09
"COc1ccccc1CN1CC[C@H](N(C)c2cc(F)c(S(=O)(=O)Nc3cscn3)cc2C)C1 [Example 119, (S)-2-fluoro-4-((1-(2-methoxybenzyl)-pyrrolidin-3-yl)(methyl)amino)-5-methyl-N-(thiazol-4-yl)benzenesulfonamide formate]",0.368,28.8,20.2
"COc1cccnc1CN1CC[C@H](N(C)c2cc(F)c(S(=O)(=O)Nc3cscn3)cc2C)C1 [Example 120, (S)-2-fluoro-4-((1-((3-methoxypyridin-2-yl)methyl)pyrrolidin-3-yl)(methyl)amino)-5-methyl-N-(thiazol-4-yl)benzenesulfonamide formate]",0.39,> 30,22.9

# Further lines, with some results ahead:
IC50 (NaV1.6) [µM],IC50 (NaV1.1) [µM],Structure (SMILES),IC50 (NaV1.5) [µM]
0.572,7.48,"O=S(=O)(Nc1nccs1)c1ccc(OC2CCN(Cc3cccc(F)c3)CC2)c(Cl)c1 [Example 81, 3-chloro-4-(1-(3-fluorobenzyl)piperidin-4-yloxy)-N-(thiazol-2-yl)benzenesulfonamide]",7.22
0.525,6,"COc1cccc(CN2CCC(Oc3ccc(S(=O)(=O)Nc4nccs4)cc3Cl)CC2)c1 [Example 84, 3-chloro-4-(1-(3-methoxybenzyl)piperidin-4-yloxy)-N-(thiazol-2-yl)benzenesulfonamide]",3.54
0.353,8.7,"O=S(=O)(Nc1nccs1)c1ccc(OC2CCN(Cc3cccc(Cl)c3)CC2)c(Cl)c1 [Example 85, 3-chloro-4-(1-(3-chlorobenzyl)piperidin-4-yloxy)-N-(thiazol-2-yl)benzenesulfonamide]",5.71
0.588,5.37,"Cc1cccc(CN2CC[C@H](Nc3cc(F)c(S(=O)(=O)Nc4nccs4)cc3Cl)C2)c1 [Example 86, (S)-5-chloro-2-fluoro-4-(1-(3-methylbenzyl)pyrrolidin-3-ylamino)-N-(thiazol-2-yl)benzenesulfonamide]",12.5
0.464,12.4,"O=S(=O)(Nc1nccs1)c1ccc(OC2CCN(Cc3ccccc3F)CC2)c(Cl)c1 [Example 90, 3-chloro-4-(1-(2-fluorobenzyl)piperidin-4-yloxy)-N-(thiazol-2-yl)benzenesulfonamide]",8.16
1.2,7.2,"Cc1ccccc1CN1CCC(Oc2ccc(S(=O)(=O)Nc3nccs3)cc2Cl)CC1 [Example 91, 3-chloro-4-(1-(2-methylbenzyl)piperidin-4-yloxy)-N-(thiazol-2-yl)benzenesulfonamide]",6.94
0.049,4.1,"Cc1cc(S(=O)(=O)Nc2cscn2)c(F)cc1N(C)[C@H]1CCN(Cc2csc(C(C)C)n2)C1 [Example 107, (S)-2-fluoro-4-((1-((2-isopropylthiazol-4-yl)methyl)pyrrolidin-3-yl)(methyl)amino)-5-methyl-N-(thiazol-4-yl)benzenesulfonamide 2,2,2-trifluoroacetate]",9.6
0.763,> 30,"Cc1cc(S(=O)(=O)Nc2cscn2)c(F)cc1N(C)[C@H]1CCN(Cc2ccn(C)n2)C1 [Example 111, (S)-2-fluoro-5-methyl-4-(methyl(1-((1-methyl-1H-pyrazol-3-yl)methyl)pyrrolidin-3-yl)amino)-N-(thiazol-4-yl)benzenesulfonamide formate]",> 30
2.25,25.9,"Cc1cc(S(=O)(=O)Nc2cscn2)c(F)cc1N(C)[C@H]1CCN(Cc2cccc(O)c2)C1 [Example 114, (S)-2-fluoro-4-((1-(3-hydroxybenzyl)-pyrrolidin-3-yl)(methyl)amino)-5-methyl-N-(thiazol-4-yl)benzenesulfonamide]",> 30
1.6,6.75,"Cc1cc(S(=O)(=O)Nc2cscn2)c(F)cc1N(C)[C@H]1CCN(CCc2ccccc2)C1 [Example 115, (S)-2-fluoro-5-methyl-4-(methyl(1-phenethylpyrrolidin-3-yl)amino)-N-(thiazol-4-yl)benzenesulfonamide]",19.3
0.529,29.3,"Cc1cc(S(=O)(=O)Nc2cscn2)c(F)cc1N(C)[C@H]1CCN(Cc2ncccc2OC(C)C)C1 [Example 116, (S)-2-fluoro-4-((1-((3-isopropoxypyridin-2-yl)methyl)pyrrolidin-3-yl)(methyl)amino)-5-methyl-N-(thiazol-4-yl)benzenesulfonamide formate]",> 30
0.058,12.9,"Cc1cc(S(=O)(=O)Nc2cscn2)c(F)cc1N(C)[C@H]1CCN(Cc2ccn(CC(F)(F)F)n2)C1 [Example 118, (S)-2-fluoro-5-methyl-4-(methyl(1-((1-(2,2,2-trifluoroethyl)-1H-pyrazol-3-yl)methyl)pyrrolidin-3-yl)amino)-N-(thiazol-4-yl)benzenesulfonamide]",> 30
1.47,> 30,"Cc1cc(CN2CC[C@H](N(C)c3cc(F)c(S(=O)(=O)Nc4cscn4)cc3C)C2)ns1 [Example 121, (S)-2-fluoro-5-methyl-4-(methyl(1-((5-methylisothiazol-3-yl)methyl)pyrrolidin-3-yl)amino)-N-(thiazol-4-yl)benzenesulfonamide formate]",> 30
1.72,26.9,"Cc1cc(S(=O)(=O)Nc2cscn2)c(F)cc1N(C)[C@H]1CCN(Cc2cc3ccccn3n2)C1 [Example 122, (S)-2-fluoro-5-methyl-4-(methyl(1-(pyrazolo[1,5-a]pyridin-2-ylmethyl)pyrrolidin-3-yl)amino)-N-(thiazol-4-yl)benzenesulfonamide]",24.2
